Source: patent US10336762B2 (priority 2017, dated 2019)
Where two headings read alike, the source gives them in different places.

Key:
[1] = target: IRAK4 enzyme (Homo sapiens (Human), UniProt Q9NWZ3); experiment: biochemical; assay type: biochemical; conditions: IRAK4 enzyme, 500 μM ATP
[2] = test system: TNFα; experiment: cells; assay type: cell-based, human; conditions: LPS-stimulated human monocytes, read-out: EC50 TNF
[3] = Homo sapiens, Monocyte, TNFα content
[4] = Homo sapiens, Monocyte, TNFα by TR-FRET

IRAK4 enzyme, sequence (Q9NWZ3 whole entry): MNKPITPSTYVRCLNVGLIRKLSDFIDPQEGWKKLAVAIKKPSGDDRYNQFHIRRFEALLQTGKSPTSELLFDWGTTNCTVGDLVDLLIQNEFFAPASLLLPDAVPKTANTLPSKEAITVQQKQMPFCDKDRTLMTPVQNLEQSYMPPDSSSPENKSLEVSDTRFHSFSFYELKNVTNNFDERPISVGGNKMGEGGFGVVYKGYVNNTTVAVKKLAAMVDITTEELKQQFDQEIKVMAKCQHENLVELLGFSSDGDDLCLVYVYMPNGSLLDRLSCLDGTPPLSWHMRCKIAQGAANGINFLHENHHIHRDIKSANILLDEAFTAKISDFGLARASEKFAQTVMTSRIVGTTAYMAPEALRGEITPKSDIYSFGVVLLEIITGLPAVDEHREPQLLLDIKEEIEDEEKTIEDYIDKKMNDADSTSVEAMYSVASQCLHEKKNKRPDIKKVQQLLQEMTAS

Structure (SMILES) | IC50 ([1]; TR-FRET) [µM] | EC50 [2, 3] [µM] | IC50 ([1]; TR-FRET (HTRF)) [µM] | EC50 [2, 4] [µM] | EC50 ([2]; TNFα content) [µM]
CC(=O)N1Cc2ccc(Nc3cc(-c4ccc5cc(C#N)cnn45)ncc3C(=O)NC[C@@H](F)C(C)(C)O)cc2C1 [Example 197, (R)-4-((2-acetylisoindolin-5-yl)amino)-6-(3-cyanopyrrolo[1,2-b]pyridazin-7-yl)-N-(2-fluoro-3-hydroxy-3-methylbutyl)nicotinamide] | 0.001 | 0.042 | – | – | –
COC(=O)N[C@H]1C[C@H](CNc2cc(-c3ccc4cc(C#N)cnn34)ncc2C(=O)NC[C@@H](F)C(C)(C)O)C1 [Example 615, methyl ((1R,3r)-3-(((2-(3-cyanopyrrolo[1,2-b]pyridazin-7-yl)-5-(((R)-2-fluoro-3-hydroxy-3-methylbutyl)carbamoyl)pyridin-4-yl)amino)methyl)cyclobutyl)carbamate] | – | 0.046 | < 0.001 | – | –
CC(C)Nc1cc(-c2ccc3cc(C#N)cnn23)ncc1C(=O)NCC(F)(F)CN [Example 552, N-(3-amino-2,2-difluoro-propyl)-6-(3-cyano-pyrrolo[1,2-b]pyridazin-7-yl)-4-(isopropyl-amino)nicotinamide] | – | 1.16 | 0.007 | – | –
CC(C)(O)[C@H](F)CNC(=O)c1cnc(-c2ccc3cc(C#N)cnn23)cc1Nc1ccc(-c2nnco2)cc1 [Example 627, (R)-4-((4-(1,3,4-oxadiazol-2-yl)phenyl)amino)-6-(3-cyanopyrrolo[1,2-b]pyridazin-7-yl)-N-(2-fluoro-3-hydroxy-3-methylbutyl)nicotinamide] | – | 0.03 | < 0.001 | – | –
CC(C)(O)[C@H](F)CNC(=O)c1cnc(-c2ccc3cc(C#N)cnn23)cc1NC12CC(C#N)(C1)C2 [Example 378, (R)-4-((3-cyano-bicyclo[1.1.1]pentan-1-yl)amino)-6-(3-cyano-pyrrolo[1,2-b]pyridazin-7-yl)-N-(2-fluoro-3-hydroxy-3-methylbutyl) nicotinamide] | < 0.001 | 0.038 | – | – | –
Cn1ccc(Nc2cc(-c3ccc4cc(C#N)cnn34)ncc2C(=O)NC[C@@H](F)C(C)(C)O)n1 [Example 371, (R)-6-(3-cyanopyrrolo[1,2-b]pyridazin-7-yl)-N-(2-fluoro-3-hydroxy-3-methylbutyl)-4-((1-methyl-1H-pyrazol-3-yl)amino)nicotinamide] | < 0.001 | 0.061 | – | – | –
CN(C)c1ccc(Nc2cc(-c3ccc4cc(C#N)cnn34)ncc2C(=O)NC[C@@H](F)C(C)(C)O)cn1 [Example 679, (R)-6-(3-cyanopyrrolo[1,2-b]pyridazin-7-yl)-4-((6-(dimethylamino)pyridin-3-yl)amino)-N-(2-fluoro-3-hydroxy-3-methylbutyl)nicotinamide] | – | 0.017 | < 0.001 | – | –
COC(=O)NC(C)(CCNC(=O)c1cnc(-c2ccc3cc(C#N)cnn23)cc1NC(C)C)C(F)F (stereo not shown) [Example 553, methyl (4-(6-(3-cyano-pyrrolo[1,2-b]pyridazin-7-yl)-4-(isopropylamino)nicotinamido)-1,1-difluoro-2-methylbutan-2-yl)carbamate] | – | 0.183 | 0.002 | – | –
N#Cc1cnn2c(-c3cc(NC45CCC(O)(CC4)CC5)c(C(=O)NC4(C(F)F)CC4)cn3)ccc2c1 [Example 951, 6-(3-cyanopyrrolo[1,2-b]pyridazin-7-yl)-N-(1-(difluoromethyl)cyclopropyl)-4-((4-hydroxybicyclo[2.2.2]octan-1-yl)amino) nicotinamide] | 0.002 | – | – | 0.159 | –
CC(CCS(C)(=O)=O)Nc1cc(-c2ccc3cc(C#N)cnn23)ncc1C(=O)NC[C@@H](F)C(C)(C)O (stereo partly drawn) [Example 440, 6-(3-cyanopyrrolo[1,2-b]pyridazin-7-yl)-N-((R)-2-fluoro-3-hydroxy-3-methylbutyl)-4-((4-(methylsulfonyl)butan-2-yl)amino)nicotinamide] | – | 0.715 | 0.002 | – | –
CC(C)(O)[C@H](F)CNC(=O)c1cnc(-c2ccc3cc(C#N)cnn23)cc1Nc1cccc(C#N)c1 [Example 141, (R)-4-((3-cyanophenyl)amino)-6-(3-cyano-pyrrolo[1,2-b]pyridazin-7-yl)-N-(2-fluoro-3-hydroxy-3-methylbutyl)nicotinamide] | < 0.001 | 0.07 | – | – | –
N#Cc1cnn2c(-c3cc(N[C@H]4CCC[C@@H](O)C4)c(C(=O)NC4CC4(F)F)cn3)ccc2c1 (stereo partly drawn) [Example 430, 6-(3-cyanopyrrolo[1,2-b]pyridazin-7-yl)-N-(2,2-difluorocyclopropyl)-4-(((1S,3R)-3-hydroxy-cyclohexyl)amino) nicotinamide] | – | 0.488 | 0.014 | – | –
C[C@@H]1CN(c2ncc(Nc3cc(-c4ccc5cc(C#N)cnn45)ncc3C(=O)NC[C@@H](F)C(C)(C)O)cn2)C[C@H](C)O1 [Example 686, 6-(3-cyanopyrrolo[1,2-b]pyridazin-7-yl)-4-((2-((2S,6R)-2,6-dimethyl-morpholino)pyrimidin-5-yl)amino)-N-((R)-2-fluoro-3-hydroxy-3-methylbutyl) nicotinamide] | – | 0.02 | < 0.001 | – | –
CC(C)Nc1cc(-c2ccc3cc(C#N)cnn23)ncc1C(=O)N[C@H]1CC[C@H](NC(=O)C(F)(F)F)CC1 [Example 127, 6-(3-cyanopyrrolo[1,2-b]pyridazin-7-yl)-4-(isopropyl-amino)-N-((1r,4r)-4-(2,2,2-trifluoroacetamido)cyclohexyl)nicotinamide] | < 0.001 | 0.112 | – | – | –
CC(C)Nc1cc(-c2ccc3cc(C#N)cnn23)ncc1C(=O)NC1CC2(CC(=O)C2)C1 [Example 152, 6-(3-cyanopyrrolo[1,2-b]pyridazin-7-yl)-4-(isopropylamino)-N-(6-oxospiro[3.3]heptan-2-yl)nicotinamide] | 0.002 | 0.191 | – | – | –
CN1CCN(C(=O)CCNC(=O)c2cnc(-c3ccc4cc(C#N)cnn34)cc2NC23CCC(O)(CC2)CC3)CC1 [Example 806, 6-(3-cyanopyrrolo[1,2-b]pyridazin-7-yl)-4-((4-hydroxybicyclo[2.2.2]octan-1-yl)amino)-N-(3-(4-methylpiperazin-1-yl)-3-oxopropyl)nicotinamide] | 0.003 | – | – | 0.349 | –
CC(C)(O)[C@H](F)CNC(=O)c1cnc(-c2ccc3cc(C#N)cnn23)cc1Nc1cnc(-c2cn[nH]c2)cn1 [Example 972, (R)-4-((5-(1H-pyrazol-4-yl)pyrazin-2-yl)amino)-6-(3-cyanopyrrolo[1,2-b]pyridazin-7-yl)-N-(2-fluoro-3-hydroxy-3-methylbutyl)nicotinamide] | < 0.001 | – | – | 0.012 | –
CC(C)(O)[C@H](F)CNC(=O)c1cnc(-c2ccc3cc(C#N)cnn23)cc1NC12CCC(C(=O)N3CC(F)(F)C3)(CC1)CC2 [Example 409, (R)-6-(3-cyanopyrrolo[1,2-b]pyridazin-7-yl)-4-((4-(3,3-difluoroazetidine-1-carbonyl)bicyclo[2.2.2]octan-1-yl)amino)-N-(2-fluoro-3-hydroxy-3-methylbutyl)nicotinamide] | – | 0.017 | 0.001 | – | –
Cc1ncc(Nc2cc(-c3ccc4cc(C#N)cnn34)ncc2C(=O)NC[C@@H](F)C(C)(C)O)cn1 [Example 595, (R)-6-(3-cyano-pyrrolo[1,2-b]pyridazin-7-yl)-N-(2-fluoro-3-hydroxy-3-methylbutyl)-4-((2-methylpyrimidin-5-yl)amino)nicotinamide] | – | 0.107 | < 0.001 | – | –
CCCC(=O)NC[C@H]1C[C@H](Nc2cc(-c3ccc4cc(C#N)cnn34)ncc2C(=O)NC[C@@H](F)C(C)(C)O)C1 [Example 825, 4-(((1r,3R)-3-(butyramidomethyl)cyclo-butyl)amino)-6-(3-cyano-pyrrolo[1,2-b]pyridazin-7-yl)-N-((R)-2-fluoro-3-hydroxy-3-methylbutyl) nicotinamide] | < 0.001 | – | – | 0.048 | –
CC(C)(O)[C@H](F)CNC(=O)c1cnc(-c2ccc3cc(C#N)cnn23)cc1Nc1ccc(CN2CC(F)(F)C2)cc1 [Example 205, (R)-6-(3-cyanopyrrolo[1,2-b]pyridazin-7-yl)-4-((4-((3,3-difluoroazetidin-1-yl)methyl)phenyl)amino)-N-(2-fluoro-3-hydroxy-3-methylbutyl) nicotinamide] | 0.001 | 0.115 | – | – | –
Cc1ncoc1C12CCC(Nc3cc(-c4ccc5cc(C#N)cnn45)ncc3C(=O)NC[C@@H](F)C(C)(C)O)(CC1)CO2 [Example 634, (R)-6-(3-cyanopyrrolo[1,2-b]pyridazin-7-yl)-N-(2-fluoro-3-hydroxy-3-methylbutyl)-4-((1-(4-methyloxazol-5-yl)-2-oxabicyclo[2.2.2]octan-4-yl)amino)nicotinamide] | – | 0.007 | < 0.001 | – | –
CC(C)(O)[C@H](F)CNC(=O)c1cnc(-c2ccc3cc(C#N)cnn23)cc1Nc1ccc(N2CC3(COC3)C2)nc1 [Example 684, (R)-4-((6-(2-oxa-6-azaspiro[3.3]heptan-6-yl)pyridin-3-yl)amino)-6-(3-cyanopyrrolo[1,2-b]pyridazin-7-yl)-N-(2-fluoro-3-hydroxy-3-methylbutyl)nicotinamide] | – | 0.089 | 0.001 | – | –
Cc1ncc(C2CCC(Nc3cc(-c4ccc5cc(C#N)cnn45)ncc3C(=O)NC[C@@H](F)C(C)(C)O)CC2)o1 (single isomer, unassigned) [Example 646] | – | – | < 0.001 | – | 0.015
CC(C)(C)c1cc(Nc2cc(-c3ccc4cc(C#N)cnn34)ncc2C(=O)NC[C@@H](F)C(C)(C)O)on1 [Example 360, (R)-4-((3-(tert-butyl)isoxazol-5-yl)amino)-6-(3-cyanopyrrolo[1,2-b]pyridazin-7-yl)-N-(2-fluoro-3-hydroxy-3-methyl-butyl)nicotinamide] | 0.002 | > 10 | – | – | –
CC(C)(O)[C@H](F)CNC(=O)c1cnc(-c2ccc3cc(C#N)cnn23)cc1N[C@H]1C[C@H](CNC(=O)CC(F)(F)F)C1 [Example 655, 6-(3-cyanopyrrolo[1,2-b]pyridazin-7-yl)-N-((R)-2-fluoro-3-hydroxy-3-methylbutyl)-4-(((1r,3R)-3-((3,3,3-trifluoropropan-amido)methyl)cyclobutyl)amino)nicotinamide] | – | 0.027 | < 0.001 | – | –
